Source: patent publication US20030092126A1, “Fragments of leptin (ob protein)” (SmithKline Beecham p.l.c., priority 1996, published 2003)

Test system: SD rats
Test: Effect of leptin fragments given intracerebroventricularly on food intake and body weight in SD rats
Type: in vivo
Conditions: single icv injection, measured 24 h later, n = 8, * P < 0.05
Method: Effect of Leptin Fragments on Food Intake in SD Rats
Rats are pre-treated with Synulox (0.1 ml/100 g) approx 1 hour before anaesthesia, and then anaesthetised with Domitor (0.04 ml/100 g i.m.) and sublimase (0.9 ml/100 g i.p.) Each rat has a cannula implanted stereotaxically into the lateral brain ventricle under sterile conditions. Anaesthesia is then reversed using Antisedan and Nubain (50% v/v :50% v/v 0.02 m1/100 g) I.P. After surgery each rat receives 0.05 ml Zenecarp.
Experiment 1: Following surgery the body weight of each animal was monitored daily throughout the procedure.
In order to verify that the cannula was in the lateral ventricle, Angiotensin II (100 ng/5 μl ) was injected icv and water intake was monitored for 5 min after injection.
24 hour food intake was measured on day 5 and 6 after surgery. On day 6 the animals were divided according to their body weight into 3 groups (a,b and c, 8 rats per group) and then fasted overnight. On the day of experiment (day 7) rats were injected icv as follows::
group a-vehicle (PBS, phosphate buffer solution, 5 μl/rat);
group b-human leptin (11.5 μg/5 μl); and
group c-leptin tryptic digest (30 μg/5 μl).
A known quantity of food in excess of the daily requirement was supplied to the rats immediately after the icv injection procedure was completed. Food intake and body weight were then measured 24h later.
Experiment 2: A separate group of animals was prepared exactly as described above but on the day of experiment after overnight fast, groups of rats were injected as follows:
group a-vehicle (PBS 5 μl /rat);
group b-human leptin ([…]);
group c-murine leptin (10 μg/5 μl);
group d-ob 57-74, sequence VTGLDFIPGLHPILTLSK (3.33 μg/5 μl);
Again a pre-weight quantity of food, in excess of the daily requirement, was re-given following the injection; change in body weight and the quantity of food consumed were recorded 24h later.

[1] = Experiment 2, Table 2, overnight fast, h-leptin 8.75 μg/rat, m-leptin 10 μg/rat, fragment 57-74 3.33 μg/rat
[2] = Experiment 1, Table 1, overnight fast, h-leptin 11.5 μg/rat, tryptic digest 30 μg/rat

Row | Molecule | 24 h food intake [1] [g] | Bwt Change [1] | 24 h food intake [2] | Bwt Change [2]
1 | VTGLDFIPGLHPILTLSK [Leptin fragment 57-74, fragment of human ob protein, amino acid residues 57 to 74] | 33.6 ± 0.9 | 26.8 ± 1.2* g/24 h | – | –
2 | h-Leptin: human leptin (human ob protein) | 33.7 ± 1.6 | 24.5 ± 3.7 g/24 h | 30.62 ± 1.5* g | 22.88 ± 2.05* g/24 h
3 | m-Leptin: murine leptin (protein, UniProt P41160 22-167, looked up) Leptin: VPIQKVQDDTKTLIKTIVTRINDISHTQSVSAKQRVTGLDFIPGLHPILSLSKMDQTLAVYQQVLTSLPSQNVLQIANDLENLRDLLHLLAFSKSCSLPQTSGLQKPESLDGVLEASLYSTEVVALSRLQGSLQDILQQLDVSPEC | 31.3 ± 1.7 | 23.7 ± 2.18* g/24 h | – | –
